Laboratory results: patent US20170342451A1, “BIOSYNTHESIS OF PACLITAXEL INTERMEDIATE” (Board of Trustees of Michigan State University, priority 2012, published 2017)
Like-named read-outs stand apart in the source and are kept apart here.

Legend:
TycA-S563A [1] = target: T1, TycA-S563A (Brevibacillus parabrevis, UniProt P09095, S563A); details: for kcat^NAC: TycA-S563A with NAC at apparent saturation
Protocol: Substrates (S)-α-phenylalanine, (R)-β-phenylalanine, and (2R,3S)-phenylisoserine (each at 1 mM) were separately incubated with TycA or TycA-S563A (20 μg) in the presence of N-acetylcysteamine (NAC; 1 mM), ATP (1 mM), and Mg^2+ (3 mM) to establish steady-state conditions with respect to protein concentration and time at 31° C. Under steady-state conditions, either (S)-phenylalanine, (R)-β-phenylalanine, or (2R,3S)-phenylisoserine at 5, 10, 20, 40, 80, 160, 250, 500, 1000 and 2000 μM was separately incubated with TycA or TycA-S563A (20 μg), ATP (1 mM), Mg^2+ (3 mM), and N-acetylcysteamine (1 mM, ‘NAC’) in duplicate, single stopped-time ([…]) 100 μL assays. The reactions were quenched by acidification to a pH of about 2 (10% formic acid in distilled water). (N-Boc)-α-phenylalanyl-SNAC (1 μM) was added as an internal standard when (S)-α-phenylalanine or (2,3)-phenylisoserine was used as the substrate; alternatively, (N-Boc)-β-phenylalanyl-SNAC (1 μM) was added as an internal standard when (R)-β-phenylalanine was used as the substrate (the synthesis is described below). The samples were analyzed on a Quattro-Premier Electro-Spray Mass Spectrometer coupled with Acquity® UPLC system fitted with a C18 Ascentis Express column (2.5×50 mm, 2.7 μm) at 30° C. An aliquot (5 μL) of each sample was loaded onto the column and the analytes were eluted with a solvent gradient of […] 0.05% triethylamine in distilled water (Solvent B) (held at 2.5% Solvent A for […], increased to 100% A over 5 sec with a 2-min hold, and then returned to 2.5% Solvent A over 5 sec with a 50-sec hold) at a flow rate of 0.4 mL/min. In brief, the effluent from the chromatography column was directed to the Quattro Premier ESI mass spectrometer, in MRM scan mode, to quantify the biosynthetic acyl SNAC products. The transition ions derived from the corresponding molecular ions were m/z 120.06, 131.10 and 105.95 for (S)-α-phenylalanyl-SNAC, (R)-β-phenylalanyl-SNAC and (2R,3S)-phenylisoserinyl-SNAC, respectively. A standard curve was used to convert the peak area under the curve of the monitored fragment ion to concentration for each biosynthetic phenylpropionyl SNAC.
Authentic (5)-α-phenylalanyl, (R/S)-β-phenylalanyl- and (2R,3S)-phenylisoserinyl-SNAC were used to construct the standard curves by correlating the peak area under the curve of the monitored ion to concentration of the standard (at 0.16, 0.32, 0.64, 1.3, 2.5, 5, 10, 20, 40, 80, 160 and 320 μM) using linear regression analysis.
The KM values of TycA and TycA-S563A for N-acetylcysteamine (NAC) was assessed by incubating each enzyme separately with (S)-α-phenylalanine (1 mM), MgCl2 (3 mM), ATP (1 mM), and N-acetylcysteamine at 5, 10, 20, 40, 80, 160, 250, 500, 1000 and 2000 μM at 31° C. for 20 min. The reactions were quenched by acidification to a pH of about 2 (10% formic acid in distilled water), and an internal standard, (N-Boc)-α-phenylalanyl-SNAC (1 μM), was added to each sample to correct for variations of the analyte. The [S-(acyl)-N-(acetyl)]cysteamine (SNAC) thioester products of the enzyme-catalyzed reaction were quantified by a liquid chromatography multiple reaction monitoring (MRM) mass spectrometry technique, and the monitored fragment ion (m/z 120) derived from the SNAC moiety of thioester analyte in the effluent was quantified identically to the procedure described earlier.

TycA-S563A [2] = target: T1, TycA-S563A; details: CoA with (S)-α-Phe as cosubstrate; for kcat^CoA: turnover with CoA at apparent saturation
Protocol: Under steady-state conditions, (S)-α-phenylalanine, (R)-β-phenylalanine, and (2R,3S)-phenylisoserine at 5, 10, 20, 40, 80, 160, 250, 500, 1000 and 2000 μM were separately incubated with TycA or TycA-S563A (20 μg) for 30 min. At the end of each reaction, and prior to mass spectrometry analysis, acetyl CoA (1 μM) was added as the internal standard to each sample to correct for variations of the analyte. The products of the enzyme-catalyzed reaction were quantified by a liquid chromatography multiple reaction monitoring (LC-ESI-MRM) mass spectrometry technique (Anderson & Hunter, Mol. Cell. Proteomics 5: 573-588 (2006)) on the Quattro-Premier Electro-Spray Mass Spectrometer coupled with Acquity® UPLC system fitted with a C18 Ascentis Express column (2.5×50 mm, 2.7 μm) at 30° C. An aliquot (5 μL) of each sample was loaded onto the column and the analytes were eluted with a solvent gradient of acetonitrile (Solvent A) in 0.05% triethylamine in distilled water (Solvent B). Elution was held at 2.5% Solvent A for 3.17 min, increased to 100% Solvent A over 5 sec with a 2-min hold, and then returned to 2.5% Solvent A over 5 sec with a 50-sec hold. The flow rate employed was 0.4 mL/min. The effluent from the chromatography column was directed to the mass spectrometer where the first quadrupole mass analyzer (in negative ion mode) was set to select for the molecular ion of a biosynthesized acyl CoA product. […]
The KM values of TycA and TycA-S563A for CoA were assessed by incubating each enzyme separately with (S)-α-phenylalanine (1 mM), MgCl2 (3 mM), ATP (1 mM), and CoA at 0.05, 0.1, 0.2, 0.4, 0.8, 1.6, 3.2, 6.4, 12.8 and 25.6 mM at 31° C. for 20 min. […] The products of the enzyme-catalyzed reaction were quantified by LC-ESI-MRM, and the monitored fragment ion (m/z 408) derived from the CoA moiety of the thioester analytes in the effluent was quantified identically to the procedure described earlier herein.

[3] = NAC with (S)-α-Phe as cosubstrate

T1 sequence (P09095 other isoform, or with tags, fused parts or gaps S563A): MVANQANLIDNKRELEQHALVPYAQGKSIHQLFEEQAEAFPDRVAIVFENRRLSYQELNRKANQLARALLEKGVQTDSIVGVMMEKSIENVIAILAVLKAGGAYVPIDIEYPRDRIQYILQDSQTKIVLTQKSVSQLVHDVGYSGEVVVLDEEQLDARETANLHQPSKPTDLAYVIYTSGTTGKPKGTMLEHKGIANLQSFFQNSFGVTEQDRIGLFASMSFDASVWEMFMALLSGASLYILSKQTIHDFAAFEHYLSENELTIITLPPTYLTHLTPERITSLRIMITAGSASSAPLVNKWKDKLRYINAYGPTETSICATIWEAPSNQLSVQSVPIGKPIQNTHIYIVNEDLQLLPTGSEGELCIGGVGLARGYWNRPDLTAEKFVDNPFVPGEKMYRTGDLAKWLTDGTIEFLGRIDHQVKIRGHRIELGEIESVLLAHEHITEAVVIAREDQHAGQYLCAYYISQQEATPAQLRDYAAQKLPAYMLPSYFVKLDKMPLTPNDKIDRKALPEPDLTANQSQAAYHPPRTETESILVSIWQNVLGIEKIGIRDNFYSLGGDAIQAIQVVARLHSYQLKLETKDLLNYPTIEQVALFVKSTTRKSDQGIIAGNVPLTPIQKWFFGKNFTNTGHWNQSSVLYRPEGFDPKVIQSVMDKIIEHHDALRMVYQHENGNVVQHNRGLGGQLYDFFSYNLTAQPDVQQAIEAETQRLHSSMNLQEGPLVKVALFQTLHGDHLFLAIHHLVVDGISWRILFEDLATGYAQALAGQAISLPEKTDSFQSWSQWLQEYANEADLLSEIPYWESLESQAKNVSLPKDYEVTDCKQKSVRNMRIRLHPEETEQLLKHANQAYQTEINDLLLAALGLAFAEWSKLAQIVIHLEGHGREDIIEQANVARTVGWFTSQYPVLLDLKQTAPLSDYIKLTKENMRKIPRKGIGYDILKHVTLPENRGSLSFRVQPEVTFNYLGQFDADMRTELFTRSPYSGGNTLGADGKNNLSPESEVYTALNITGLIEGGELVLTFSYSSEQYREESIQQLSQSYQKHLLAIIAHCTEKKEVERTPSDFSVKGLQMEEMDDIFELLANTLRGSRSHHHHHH

In the case of N[C@H](CC(=O)O)c1ccccc1 [(R)-β-Phe, (R)-β-phenylalanine], the “decrease in turnover, TycA-S563A compared to TycA” value (TycA-S563A [1]; NAC cosubstrate) is reported as 15 fold, the “increase in KM, TycA-S563A compared to TycA” value (TycA-S563A [1]; NAC cosubstrate) is reported as roughly 2 fold and the “lower catalytic efficiency of TycA-S563A compared to that of TycA” value (TycA-S563A [1]; NAC cosubstrate) is reported as roughly 30 fold. The “kcat^NAC” value (TycA-S563A [1]; [3]) was 0.0004 ± 1.7e-05 s⁻¹ and the “kcat^CoA” value (TycA-S563A [2]) was 0.05 ± 0.00067 s⁻¹.

For N[C@@H](c1ccccc1)[C@@H](O)C(=O)O [(2R,3S)-PheIso, (2R,3S)-phenylisoserine], the “kcat^NAC” value (TycA-S563A [1]; [3]) was 0.00517 ± 0.00083 s⁻¹, the Km (TycA-S563A [1]; TycA-S563A with NAC, NAC with (S)-α-Phe as cosubstrate) was 512 ± 43 µM and the Km (TycA-S563A [2]; CoA 1 mM, ATP 1 mM, MgCl2 3 mM, 31° C.) was 191 ± 10 µM. For the same compound, the “kcat^CoA” value (TycA-S563A [2]) was 0.00717 ± 0.00017 s⁻¹.
